For data set [1] the following is noted: cited from earlier work.
Data set [2] can be described thus: Remote drug loading into PEG-coated liposomes. In kind it is physicochemical. The note with it: for % Drug Loading / Drug Conc. at Lipid Conc. of 36 mg/ml / Internal Liposome Drug Conc.: Drug:Lipid Ratio (mg/ml/mM) 2.5:50 (lysine-cipro), 5:50 (glycine-cipro). The procedure: The chloroform was removed using a flash evaporator under reduced pressure until dryness. To the thin lipid film on the surface of the flask was added 15 ml of a solution of 250 mM ammonium sulfate, pH 5.5 and the lipids were dispersed in the solution by vigorous shaking for approximately 30 minutes at 60° C. The multilamellar vesicles obtained were extruded 6 times through a 0.4 μm pore-size Nucleopore polycarbonate filter, 6 times through a 0.1 μm polycarbonate filter and 3 times through a 0.05 μm polycarbonate filter using a stainless steel extrusion cell under a pressure of 200-400 psig. The extrusion process was carried out at 60° C. […] The liposomes were then dialyzed overnight against 4 liters 10% sucrose to remove external ammonium sulfate at 4° C.
The mixtures were incubated at 60° C. for 30 minutes. After incubation, the mixtures were immediately cooled in an ice bath. Aliquot samples were taken and the percent of drug loading was determined by using a Sephadex G-50 column (1.0×19 cm).

The test system of another data set is E. faecalis. In words: Minimum inhibitory concentration, broth microdilution (NCCLS M7-A). The following applies: Enterococcus faecalis, read-out: Minimum Inhibitory Concentration. In kind it is cell-based. As to the method: (§1) The minimum inhibitory concentration of the drugs against the bacterial strains S. pyrogenes, E. faecalis, S. aureus, E. coli and P. aeruginosa were determined.

In a further data set the test system is P. aeruginosa. The data set is described as above. The note with it: Pseudomonas aeruginosa, read-out: Minimum Inhibitory Concentration. In kind it is cell-based. As to the method: as §1
The test system of the next data set is S. pyrogenes. The data set is described as above. In kind it is cell-based. The note with it: read-out: Minimum Inhibitory Concentration. The procedure:
as §1

The next data set concerns S. aureus. Described as above. Format: cell-based. The following applies: Staphylococcus aureus, inoculum 5×10^5 CFU/ml. The procedure: (§2) As described above, glycinyl-ciprofloxacin was prepared as set forth in Example 2A-2B and tested for antimicrobial activity in vitro, as described in Example 2C. The minimum inhibitory concentration of the drugs against the bacterial strains S. pyrogenes, E. faecalis, S. aureus, E. coli and P. aeruginosa were determined.
(§3) Minimum inhibitory concentrations were determined by a broth microdilution technique following the National Committee for Clinical Laboratory Standards guidelines (NCCLS document M7-A, National Committee for Laboratory Standards, Villanova, Pa., 1994 Approved Standard for "Methods for dilution antimicrobial susceptibility tests for bacteria that grow aerobically") with a starting inoculum of 5×10^5 CFU/ml.

A further data set relates to E. coli. The data set is described as above. The following applies: Escherichia coli, inoculum 5×10^5 CFU/ml. Format: cell-based. The procedure:
as §2, §3

The test system of data set [3] is S. pyrogenes, E. faecalis, S. aureus, E. coli and P. aeruginosa. In words: Antimicrobial activity of conjugate versus ciprofloxacin (MIC, summary in words). Format: cell-based. The note with it: compared with ciprofloxacin, MICs of Table 1. The procedure: as §1
[4] abbreviates: amino acid used to modify ciprofloxacin.
Where [5] appears, read: amino group (NH3) of amino acid, Lehninger.

In brackets after ≈: the same amount, converted by molar mass. Where two headings read alike, the source gives them in different places.

What is called pKa is the negative logarithm of the acid dissociation constant.

ε-aminocapric acid: the pKa in data set [1] (setting [4]) is listed as 10.5.
Consider `NCCCC[C@H](N)C(=O)N1CCN(c2cc3c(cc2F)c(=O)c(C(=O)O)cn3C2CC2)CC1` [lysinyl-ciprofloxacin], for which, in data set [2], the “% Drug Loading” value amounted to 73%, the “Drug Conc. at Lipid Conc. of 36 mg/ml” value turned out to be 1.825 and the “Internal Liposome Drug Conc.” value was 13.1 mg/mL.
As to `C[C@H](N)C(=O)O` [alanine], the pKa in data set [1] (setting [5]) is recorded as 9.7.
As for `NCCCC[C@H](N)C(=O)O` [lysine], the pKa in data set [1] (setting [5]) was 8.95.
For the molecule α-aminocapric acid, the pKa in data set [1] (setting [4]) was 9.6.
In the case of `O=C(O)c1cn(C2CC2)c2cc(N3CCNCC3)c(F)cc2c1=O` [ciprofloxacin, 1-cyclopropyl-6-fluoro-1,4-dihydro-4-oxo-7-(1-piperazinyl)-3-quinoline carboxylic acid], the MIC in the data set with E. faecalis was 1 µg/mL (≈ 3.02 µM); in the data set on P. aeruginosa, less than 0.5 µg/mL; with S. pyrogenes, less than 0.5 µg/mL; in the data set on S. aureus, 1 µg/mL (≈ 3.02 µM). The “percent of drug loading” value came to 49% in data set [2] (lipid/drug ratio 2), 75% in data set [2] (lipid/drug ratio 4), 90% in data set [2] (lipid/drug ratio 8) and 91% in data set [2] (lipid/drug ratio 16). The ciprofloxacin loading in data set [2] (lipid/drug ratio 8, as stated in leakage test) came out at 75%.
As for `N=C(N)NCCC[C@H](N)C(=O)O` [arginine], the pKa in data set [1] (setting [5]) is recorded as 9.04.
Take `NCC(=O)N1CCN(c2cc3c(cc2F)c(=O)c(C(=O)O)cn3C2CC2)CC1` [glycinyl-ciprofloxacin]: the MIC with E. faecalis (E. faecalis, inoculum 5×10^5 CFU/ml) was 32 µg/mL (≈ 82.4 µM); in the data set on P. aeruginosa (P. aeruginosa, inoculum 5×10^5 CFU/ml), more than 512 µg/mL; in the data set on S. pyrogenes (S. pyrogenes, inoculum 5×10^5 CFU/ml), 4 µg/mL (≈ 10.3 µM); in the data set on E. coli, 8 µg/mL (≈ 20.6 µM); against S. aureus, 32 µg/mL (≈ 82.4 µM). Besides, the “% Drug Loading” value in data set [2] amounted to 75%. For the same molecule, in data set [2], the “Drug Conc. at Lipid Conc. of 36 mg/ml” value came to 5. For the same molecule, the “Internal Liposome Drug Conc.” value in data set [2] is 37.5 mg/mL. The “potency relative to ciprofloxacin” value in data set [3] is listed as “some loss of potency”.
Take `NCC(=O)O` [glycine]: the pKa in data set [1] (setting [5]) is on record as 9.6.

The record behind these values is US5972379A, “Liposome composition and method for administering a quinolone” (Sequus Pharmaceuticals, Inc., priority 1998, dated 1999).
